The target in the experiment is α-glucosidase from Bacillus stearothermophilus. The experiment is described as follows: α-glucosidase assay. The format is biochemical. Conditions: positive control, pNPG, 20 min 60 °C, pH 6.8, ± SD.

The values that follow come from publication PMC10623271 (Heliyon, 2023).

`C[C@H]1O[C@H](O[C@H]2[C@H](O)[C@@H](O)[C@@H](O[C@H]3[C@H](O)[C@@H](O)C(O)O[C@@H]3CO)O[C@@H]2CO)[C@H](O)[C@@H](O)[C@@H]1N[C@H]1C=C(CO)[C@@H](O)[C@H](O)[C@H]1O` (stereo partly shown) [Acarbose, acarbose] displayed a half-inhibitory concentration (IC50) of 2.9 ± 0.4 nM.

In general, IC50 refers to the concentration that gives 50% inhibition. Low values mean higher potency, high ones lower potency.
